{"source": "patent US20240173292A1", "about": "“COMPOUNDS THAT SYNERGIZE WITH COPPER TO KILL STREPTOCOCCUS PNEUMONIAE” (priority 2021, published 2024)", "key": {"[1]": {"system": "ΔcopA mutant strain", "test": "Growth curves in ThyB with copper sulfate and compound, copper exporter deficient mutant", "format": "cell-based, Streptococcus pneumoniae", "details": "compound plus copper", "excerpt": "Final solution was set to pH 6.6."}, "[2]": {"system": "WT TIGR4 S. pneumoniae", "test": "Growth curves in ThyB with copper sulfate and compound", "details": "for copper-dependent toxicity (CDT) / growth defect in growth curve: compound plus copper sulfate"}, "[3]": {"details": "cited from earlier work"}, "[4]": {"system": "S. aureus", "details": "cited from earlier work"}, "[5]": {"system": "WT TIGR4 S. pneumoniae", "details": "M17"}, "[6]": {"system": "WT TIGR4 S. pneumoniae", "details": "RPMI"}, "[7]": {"system": "TIGR4 S. pneumoniae", "details": "GFAAS"}, "[8]": {"system": "TIGR4 S. pneumoniae", "details": "ICP-OES"}, "[9]": {"system": "Streptococcus pneumoniae", "details": "150 mg DMDC orally once a day for a week"}, "[10]": {"system": "Coccidioides posadasii", "details": "inhaler with 50 mg DMDC twice a day for a week"}, "[11]": {"system": "Streptococcus pyogenes", "details": "inhaler with 25 mg DMDC twice a day for two weeks"}, "[12]": {"system": "Methicillin-resistant Staphylococcus aureus (MRSA)", "details": "topical cream containing 50 mg DMDC twice daily"}, "[13]": {"system": "WT TIGR4 S. pneumoniae", "test": "Killing curves in THYB"}, "[14]": {"system": "WT TIGR4 bacteria co-cultured with activated J774A.1 macrophages", "test": "Macrophage killing assay, TIGR4 co-cultured with J774A.1 macrophages", "format": "cell-based, murine", "details": "macrophages with 100 μM inhibitor; bacteria treated with 250 μM Cu2+ + 16 μM DMDC"}, "[15]": {"system": "M. tuberculosis", "details": "cited from earlier work"}, "[16]": {"system": "Schistosoma mansoni", "details": "newly transformed and lung stage schistosomula; cited from earlier work"}}, "note": "Entries after “also recorded” stand apart in the source; their conditions may differ. Where two headings read alike, the source gives them in different places."}
{"smiles": "O.c1cnc2c(c1)ccc1cccnc12", "note": "[1,10-phenalthroline monohydrate]", "values": [{"measurement": "CDT / growth defect in growth curve, ΔcopA", "setting": "[1]", "value": "an effect"}, {"measurement": "copper-dependent toxicity (CDT) / growth defect in growth curve", "setting": "[2]; WT TIGR4", "value": "no effect on wild type"}]}
{"smiles": "Oc1cccc2cccnc12", "note": "[8HQ, 8-hydroxyquinoline]", "values": [{"measurement": "CDT / growth defect in growth curve, ΔcopA", "setting": "[1]", "value": "susceptible; also recorded: does cause a growth defect"}, {"measurement": "toxicity in mammals", "setting": "[3]; mammals", "value": "inherent toxicity"}, {"measurement": "CDT against S. aureus", "setting": "[4]", "value": "have CDT"}, {"measurement": "copper-dependent toxicity (CDT) / growth defect in growth curve", "setting": "[2]; WT TIGR4", "value": "no 8HQ mediated CDT; also recorded: do not cause a significant growth defect"}]}
{"smiles": "CCN(CC)C(=S)S", "note": "[DETDC, N,N-diethyldithiocarbamate]", "values": [{"measurement": "CDT at much higher / high concentrations", "setting": "[2]; with copper", "value": "no effect"}]}
{"smiles": "CN(C)C(=S)[S][Na]", "note": "[DMDC]", "values": [{"measurement": "time required for killing", "setting": "[5]", "value": "1 to 2", "unit": "h"}, {"measurement": "time required for killing", "setting": "[6]", "value": "3 to 4", "unit": "h"}, {"measurement": "increase of intracellular copper compared to the copper treated samples", "setting": "[7]; 250 μM Cu2+ + 16 μM DMDC", "value": 7, "unit": "fold"}, {"measurement": "increase of intracellular copper compared to the copper treated samples", "setting": "[7]; 250 μM Cu2+ + 32 μM DMDC", "value": 10, "unit": "fold"}, {"measurement": "increase of intracellular copper compared to the untreated control", "setting": "[8]; 250 μM Cu2+ + 16 μM DMDC", "value": 65, "unit": "fold"}, {"measurement": "increase of intracellular copper compared to the untreated control", "setting": "[8]; 250 μM Cu2+ + 32 μM DMDC", "value": 67, "unit": "fold"}, {"measurement": "side effects", "setting": "[9]", "value": "No side effects"}, {"measurement": "side effects", "setting": "[10]", "value": "No side effects"}, {"measurement": "side effects", "setting": "[11]", "value": "No side effects"}, {"measurement": "side effects", "setting": "[12]", "value": "No side effects"}, {"measurement": "toxicity of chronic use", "setting": "[3]; chronic use", "value": "harm the liver and lead to higher rates of some carcinomas"}, {"measurement": "toxicity of high doses", "setting": "[3]; high doses", "value": "neurological problems"}, {"measurement": "kill of wild-type Streptococcus pneumoniae", "setting": "[13]; low micromolar DMDC complexed with copper, in 2 hours", "value": "up to 99.9%"}]}
{"smiles": "N=C(N)NOCC[C@H](N)C(=O)O", "note": "[L-canavanine]", "values": [{"measurement": "recovered bacteria with macrophage inhibitor treatment", "setting": "[14]", "value": "no statistically significant improvement"}]}
{"smiles": "CC1(C)C2CC3OB(c4cccc5cccnc45)OC3(C)C1C2", "note": "(stereo not drawn) [QBP, quinoline boronic acid pinanediol ester]", "values": [{"measurement": "CDT / growth defect in growth curve, ΔcopA", "setting": "[1]", "value": "susceptible; also recorded: does cause a growth defect"}, {"measurement": "CDT on the ΔcopA mutant as compared to 8HQ", "setting": "[1]", "value": "did not exhibit as much CDT"}, {"measurement": "copper-dependent toxicity (CDT) / growth defect in growth curve", "setting": "[2]; WT TIGR4", "value": "no CDT; also recorded: do not cause a significant growth defect"}]}
{"smiles": "CCN(CC)C(=S)SSC(=S)N(CC)CC", "note": "[TETD, tetraethylthiuram disulfide]", "values": [{"measurement": "copper dependent toxicity against M. tuberculosis", "setting": "[15]", "value": "copper dependent toxicity"}, {"measurement": "bactericidal activity in killing curve", "setting": "[13]; compound alone or with copper sulfate", "value": "did not show bactericidal activity"}, {"measurement": "growth with compound alone", "setting": "[2]; TETD alone, no copper", "value": "prevented growth"}, {"measurement": "copper-dependent toxicity (CDT) / growth defect in growth curve", "setting": "[2]; WT TIGR4", "value": "returned growth to wild type levels"}, {"measurement": "copper-dependent toxicity (CDT) / growth defect in growth curve", "setting": "[2]; WT TIGR4, listed as disulfiram", "value": "not observed"}]}
{"smiles": "S=C(S)N1CCN(C(=S)S)CC1", "note": "[TLA2, Piperizine bis-dithiocarbamate]", "values": [{"measurement": "concentration showing protective effect vs copper", "setting": "[2]; 250 uM or 500 uM copper sulfate", "value": "> 32", "unit": "µM"}]}
{"smiles": "COc1cc(C(C)=O)ccc1O", "note": "[apocynin]", "values": [{"measurement": "recovered bacteria with macrophage inhibitor treatment", "setting": "[14]", "value": "no statistically significant improvement"}]}
{"smiles": "O=C(C1CCCCC1)N1CC(=O)N2CCc3ccccc3C2C1", "note": "(stereo not drawn) [praziquantel]", "values": [{"measurement": "efficacy of praziquantel in these developmental stages", "setting": "[16]", "value": "not effective"}]}
{"smiles": "Cc1ncc(CSSCc2cnc(C)c(O)c2CO)c(CO)c1O.Cl", "note": "[pyrithoxin dihydrochloride]", "values": [{"measurement": "copper-dependent toxicity (CDT) / growth defect in growth curve", "setting": "[2]; WT TIGR4", "value": "no effect"}]}
